Literature values as cited in patent US11896675B2, “Site-specific antibody conjugation and antibody-drug conjugate as specific embodiment thereof” (AbTis Co., Ltd., priority 2019, dated 2024).
pKd: −log10 of the molar value. Square brackets hold non-standard residues; d marks the D form. Ends that are not written are not given here. Cit = NC(=O)NCCC[C@H](N)C(=O)O

Tests used:
IgG [1] = conditions: towards IgG, obtained at different conditions or by different methods; for pKd: read-out: Binding Constant Kd
IgG [2] = conditions: towards IgG

Row | Substance | pKd (IgG [1]) | Binding Capacity (maximal binding capacity qm) (IgG [2]) | Binding Capacity (IgG [2]) | Binding Constant Ka (IgG [1]) | Binding Capacity, DBC (dynamic binding capacity) (IgG [2])
1 | cyclo[(Link-M-WFRHYK] | 5.12 | 19.7 mg/mL | – | – | –
2 | EPIHRSTLTALL [phage display library peptide, SpA mimic] | – | – | 320 µg/g | – | –
3 | HYFKFD [comb. library peptide, SpA mimic] | 4.96 | 27.0 mg/mL | – | – | –
4 | FYWHCLDE | 5.82 | 104.2 mg/mL | – | – | –
5 | NKFRGKYK [spot peptide array peptide] | – | – | – | Ka = 8.6 × 10^6M^−1 | DBC-4.9
6 | KHRFNKD [phage-display library peptide, SpA mimic] | 7.70 | – | – | – | –
7 | HWRGWV [comb. library peptide, SpA mimic] | 5.00 | 26.4 mg/mL | – | – | –
8 | APAR [comb. tetrapeptide library peptide] | 7.03 | 9.1 mg/mL | – | – | –
9 | FYCHTIDE [FYCHTIDE(3)] | 5.24 | 63.7 mg/mL | – | – | –
10 | FYCHWALE | 5.21 | 87.6 mg/mL | – | – | –
11 | RRGW | 9.30 | – | – | – | –
12 | FRRHL [comb. library peptide, SpA mimic] | 4.59 | 33.6 mg/mL | – | – | –
13 | DAAG [comb. library ligand, SpA mimic] | – | 49.6 mg/mL | – | Ka = 2.6 × 10^5M^−1 | –
14 | D2AAG (DDAAG) [Compound D2AAG, comb. library ligand, SpA mimic] | – | 36.2 mg/mL | – | Ka = 7.9 × 10^5M^−1 | –
15 | NARKFYKG [spot peptide array peptide] | – | – | – | Ka = 6.5 × 10^6M^−1 | DBC-5.0
16 | HWCitGWV (HW[Cit]GWV) [comb. library peptide, SpA mimic] | 3.97 | 78 mg/mL | – | – | –
